The subject of the test is mutated kRAS/kRAS x MS1096 fly (human kRAS G12V expressed in the wing). The test can be described thus: Screening for drugs that reverse the wing phenotype of the mutated kRAS/kRAS x MS1096 fly. The format is in vivo, Drosophila. Conditions: for rescue from the crumpled/kringled wing phenotype: 10 μM test article in fly food, embryos to adults, 25° C., 14 days, FIG. 8. As for the experimental part:
Male mutated kRAS/kRAS flies were bred overnight with female MS1096/GAL4 flies in a fly condo^2 with a grape agar plate floor. The resulting embryos were gently dislodged from the grape agar plate using a squirt bottle containing 0.7% NaCl, 0.03% Triton X-100 In distilled water. The embryos were counted and then dissolved in a solution containing 14.4% sucrose, 0.7% NaCl and 0.05% Triton to give a concentration of 15 embryos/10 μL of solution. ^2 Sullivan W, Ashburner M, Hawley, S R, Drosophila Protocols 2000, Cold Spring Harbor Laboratory Press, pp 541-551.
The test article, 1-benzyl-2-phenyl-1H-benzo[d]imidazole which is a deltarasin analog with activity againsy RAS signaling,^1 was dissolved in DMSO to give a concentration of 10 mM. The deltarasin analog inhibitor was synthesized at the Tosk facility. Four μL of this solution, 100 μL of the embryo solution (150 embryos), ½ teaspoon blue fly food (North Carolina, catalogue number 173216) and 4 ml of water were combined in a vial (VWR, catalogue number 89092-720) and capped (VWR, catalogue number 89168-886). Using the recipe provided above, the final concentration of test article in the mixture was 10 μM.
The vials were placed in a 25° C. incubator for 14 days after which they. were examined for the percentage of flies with crumpled/kringled wings. […] The goal for screening chemicals for anti-kRAS activity is to achieve in the kRAS mutant fly the rescue from the crumpled/kringled wing phenotype achieved with the deltarasin analog.

The mark [1] stands for this setting: flies rescued by treatment with a test article, compared with control and kRAS mutant flies.

Regarding `c1ccc(Cn2c(-c3ccccc3)nc3ccccc32)cc1` [test article, 1-benzyl-2-phenyl-1H-benzo[d]imidazole], the “rescue from the crumpled/kringled wing phenotype” value is reported as “significantly less crumpled/kringled although still non-functional”. Further, the “rescue from the crumpled/kringled wing phenotype” value (listed as deltarasin analog) is recorded as “rescued”. In addition, the “typical appearance of wings: vein-free region (Rescued)” value (compared with the same regions in kRAS mutant flies) is “Vein-free region is considerably”. Under setting [1], the “ability to take flight (Rescued)” value is “Unable to take flight”; the “typical appearance of wings: position relative to fly body in idle state (Rescued)” value is “Wings tend to be parallel to the fly”; the “typical appearance of wings: size and shape (Rescued)” value is “Medium, semi-flat and less crinkled”; the “typical appearance of wings: transparency (Rescued)” value was “Slightly translucent wings”. Besides, under setting [1], the “typical appearance of wings: wing veins (Rescued)” value is “Slightly aberrant wing “veins.””.

(Values after patent US10660318B2, “Non-mammalian RAS transgenic animal model” (Tosk, Inc., priority 2013, dated 2020).)
